From patent US7709465B2, “Phosphorous containing compounds including triphenylmethylphosphonate esters for the treatment of melanoma and other cancers” (The Board of Trustees of the University of Illinois, priority 2006, dated 2010)

Legend:
Format in all cases: cell-based
[1] = tested on: Hs578t; experiment: High-throughput cell death assay I, Hs578t; conditions: Hs-578T, breast (human), read-out: diethyl TPMP IC50
Description: (§1) Compound CX5 was further tested using the same high-throughput cell death assay I for activity in inducing death in multiple cell lines representing a variety of cancer types.

[2] = tested on: ACHN; experiment: High-throughput cell death assay I, ACHN; conditions: renal (human), read-out: diethyl TPMP IC50
Description: as §1

[3] = tested on: NCI-H226; experiment: High-throughput cell death assay I, NCI-H226; conditions: NCI-H226, lung (human); read-out: diethyl TPMP IC50
Description: as §1

[4] = tested on: SK-MEL-5; experiment: High-throughput cell death assay I, SK-MEL-5; conditions: SK-MEL-5, melanoma (human); read-out: diethyl TPMP IC50
Description: as §1

[5] = tested on: HL-60; experiment: High-throughput cell death assay I, HL-60; conditions: HL-60, leukemia (human); read-out: diethyl TPMP IC50
Description: (§2) According to the American Type Culture Collection (ATCC), U-937 is a human cell line of histiocytic lymphoma tissue with monocyte morphology. See Sundstrom C, Nilsson K, Int. J. Cancer 17: 565-577, 1976. Also according to ATCC, HL-60 is a human cell line of a tissue type described as peripheral blood, promyeloblast, and acute promyelocytic leukemia, with myeloblastic morphology. See Gallagher R, et al., Blood 54: 713-733, 1979.
as §1

[6] = tested on: U-937; experiment: High-throughput cell death assay I, U-937; conditions: U-937, lymphoma (human); read-out: diethyl TPMP IC50
Description: as §2, §1

[7] = tested on: B16-F10; experiment: High-throughput cell death assay I, B16-F10; conditions: B16-F10, melanoma (mouse); read-out: diethyl TPMP IC50
Description: as §1

[8] = tested on: SK-N-SH; experiment: High-throughput cell death assay I, SK-N-SH; conditions: neuroblastoma (human), read-out: diethyl TPMP IC50
Description: as §1

[9] = tested on: K562; experiment: High-throughput cell death assay I, K562; conditions: K562, leukemia (CML, human); read-out: diethyl TPMP IC50
Description: as §1

[10] = tested on: CRL-1782; experiment: High-throughput cell death assay I, CRL-1782; conditions: CRL-1782, melanoma (human); read-out: diethyl TPMP IC50
Description: as §1

[11] = tested on: MDA-MB-231; experiment: High-throughput cell death assay I, MDA-MB-231; conditions: Homo sapiens, read-out: diethyl TPMP IC50
Description: as §1

## CCOP(=O)(OCC)C(c1ccccc1)(c1ccccc1)c1ccccc1 [CX5]
[1]
  IC50: 13.2 µM
[2]
  IC50: 9.69 µM
[3]
  IC50: 6.56 µM
[4]
  IC50: 3.39 µM
[5]
  IC50: 13.2 µM
[6]
  IC50: 11.6 µM
[7]
  IC50: 0.81 µM
[8]
  IC50: 1.8 µM
[9]
  IC50: 3.27 µM
[10]
  IC50: 1.41 µM
[11]
  IC50: 1.09 µM
